Data taken from ChEMBL document CHEMBL4043162, “Synthesis of novel flavonoid alkaloids as α-glucosidase inhibitors” (Bioorg Med Chem, 2017).
Activity calls are given as the source filed them. No cut-off for these calls is given here.

Test system: Saccharomyces cerevisiae
Assay: Non-competitive inhibition of Saccharomyces cerevisiae alpha-glucosidase pre-incubated for 15 mins before p-nitrophenyl-alpha-D-glucopyranoside substrate addition and measured after 30 mins by UV spectrometry based Lineweaver-Burk plot
For `CCOC(=O)c1ccc(N2CCN(Cc3c(O)cc4c(c3O)C(=O)CC(c3ccc(O)cc3)O4)CC2)cc1` (configuration not stated), the inhibition was “Active”. With `O=C1CC(c2ccc(O)cc2)Oc2cc(O)c(CN3CCc4ccccc4C3)c(O)c21` (configuration not stated) the inhibition was “Active”.

Biological target: not listed separately
Assay: Non-competitive inhibition of Saccharomyces cerevisiae alpha-glucosidase pre-incubated for 15 mins before p-nitrophenyl-alpha-D-glucopyranoside substrate addition and measured after 30 mins by UV spectrometry based Dixon plot
With `CCOC(=O)c1ccc(N2CCN(Cc3c(O)cc4c(c3O)C(=O)CC(c3ccc(O)cc3)O4)CC2)cc1` (configuration not stated) the Ki was 13.2 µM. Molecule `O=C1CC(c2ccc(O)cc2)Oc2cc(O)c(CN3CCc4ccccc4C3)c(O)c21` (configuration not stated) has a Ki of 37.8 µM.

Biological target: not listed separately
Assay: Inhibition of Saccharomyces cerevisiae alpha-glucosidase pre-incubated for 15 mins before p-nitrophenyl-alpha-D-glucopyranoside substrate addition and measured after 30 mins by UV spectrometry
For `O=C1CC(c2ccc(O)cc2)Oc2cc(O)c(CN3CCN(CCO)CC3)c(O)c21` (configuration not stated), the IC50 was 521 µM. With `O=c1cc(-c2ccccc2)oc2cc(O)c(CN3CCOCC3)c(O)c12` the IC50 was over 500 µM. Molecule `O=c1cc(-c2ccccc2)oc2cc(O)c(CN3CCCCC3)c(O)c12` has an IC50 of over 500 µM. With `O=c1cc(-c2ccccc2)oc2cc(O)c(C3CCCCN3)c(O)c12` (configuration not stated) the IC50 was over 500 µM. Work on `CCN(CC)Cc1c(O)cc2oc(-c3ccccc3)cc(=O)c2c1O` yielded an IC50 of 217 µM. Molecule `CCOC(=O)c1ccc(N2CCN(Cc3c(O)cc4c(c3O)C(=O)CC(c3ccc(O)cc3)O4)CC2)cc1` (configuration not stated) has an IC50 of 4.1 µM. In the case of `COc1ccc(-c2coc3c(CN4CCCCC4)c(O)ccc3c2=O)cc1`, the IC50 is reported as over 500 µM. `O=c1cc(-c2ccccc2)oc2c(C3CCCCN3)c(O)cc(O)c12` (configuration not stated) gave an IC50 of over 500 µM. `CCOC(=O)N1CCN(Cc2c(O)c(CN3CCN(C(=O)OCC)CC3)c3oc(-c4ccccc4)cc(=O)c3c2O)CC1` gave an IC50 of over 500 µM. For `O=c1cc(-c2ccccc2)oc2c(CN3CCN(CCO)CC3)c(O)cc(O)c12`, the IC50 was over 500 µM. Work on `CCOC(=O)N1CCN(Cc2c(O)cc3c(c2O)C(=O)CC(c2ccc(O)cc2)O3)CC1` (configuration not stated) yielded an IC50 of 65.1 µM. In the case of `O=C1c2c(cc(O)c(C3CCCCN3)c2O)OC(c2ccc(O)c(O)c2)C1O` (configuration not stated), the IC50 is reported as over 500 µM. In the case of `COc1ccc(C2CC(=O)c3c(cc(O)c(C4CCCCN4)c3O)O2)cc1O` (configuration not stated), the IC50 is reported as over 500 µM. Molecule `O=c1cc(-c2ccccc2)oc2cc(O)c(CN3CCN(CCO)CC3)c(O)c12` has an IC50 of over 500 µM. With `O=C1CC(c2ccc(O)cc2)Oc2cc(O)c(CN3CCOCC3)c(O)c21` (configuration not stated) the IC50 was 202 µM. In the case of `O=C1CC(c2ccc(O)cc2)Oc2cc(O)c(CN3CCCCC3)c(O)c21` (configuration not stated), the IC50 is reported as 82.8 µM. `O=c1cc(-c2ccc(O)cc2)oc2cc(O)c(C3CCCCN3)c(O)c12` (configuration not stated) showed an IC50 of 293 µM. Molecule `CCOC(=O)N1CCN(Cc2c(O)cc3oc(-c4ccccc4)cc(=O)c3c2O)CC1` has an IC50 of over 500 µM. `O=C1CC(c2ccc(O)cc2)Oc2cc(O)c(CN3CCc4ccccc4C3)c(O)c21` (configuration not stated) showed an IC50 of 23.4 µM. `O=c1cc(-c2ccccc2)oc2cc(O)c(CN3CCc4ccccc4C3)c(O)c12` gave an IC50 of over 500 µM. Molecule `O=C1CC(c2ccc(O)cc2)Oc2cc(O)c(C3CCCCN3)c(O)c21` (configuration not stated) has an IC50 of 249 µM. `Oc1ccc(C2CCc3c(O)cc(O)c(C4CCCCN4)c3O2)cc1` (configuration not stated) showed an IC50 of over 500 µM. Work on `Oc1ccc(C2CCc3c(cc(O)c(C4CCCCN4)c3O)O2)cc1` (configuration not stated) yielded an IC50 of over 500 µM.
